Seven substances from patent US20100144636A1, “PEPTIDES DERIVED FROM RAS-P21 AND USES THEREFOR” (THE RESEARCH FOUNDATION OF STATE UNIVERSITY OF NEW YORK, priority 2008, published 2010) can be followed below.

Where no end group is shown, it is not given here.

The target of data set [1] is oncogenic ras-p21 with raf (Homo sapiens, UniProt P04049). As to the kind of experiment: Interaction of oncogenic ras-p21 with raf. The data set is classed as binding.
Data set [2] deals with insulin-induced oocyte maturation. Nature of the data set: Insulin-induced oocyte maturation (activated wild-type ras-p21). It counts as cell-based, Xenopus laevis. The conditions noted are these: oocytes induced to mature with insulin. An excerpt:
(§1) The Applicants have synthesized both of the inventive peptides, referred to as PNC-7 and PNC-2, and assayed them for their abilities to block oncogenic ras-p21 induction of maturation of Xenopus laevis oocytes. Injection of oncogenic, but not wild-type ras-p21, into these oocytes induce oocyte maturation, i.e., completion of the second meiotic division, as measured by germinal vesicle membrane breakdown (GVBD). Insulin also induces oocyte maturation in a manner that requires activation of endogenous wild-type ras-p21.

Data set [3] relates to oncogenic (Val 12-containing) ras-p21-induced oocyte maturation. Nature of the data set: Oncogenic ras-p21-induced oocyte maturation (GVBD). The data set is classed as cell-based, Xenopus laevis. The conditions noted are these: injected/co-injected with oncogenic ras-p21 into oocytes.
Text: as §1

Data set [4] relates to BMRPA1 normal rat pancreatic acinar cells. Nature of the data set: Growth and viability of untransformed BMRPA1 cells incubated with peptide. The data set is classed as cell-based. The method, then: (§2) MIAPaCa-2 cells were grown in Dulbecco's modified Eagle's medium (GIBCO) supplemented with heat inactivated 10% fetal calf serum, 20 mM glutamine, penicillin (100 units/ml), streptomycin (100/ug/ml) and plated on a six-well plate with density no more then 20,000 cells/well in 3 ml culture medium. HT1080 cells were cultured in RPMI 1640 medium supplemented with 10% heat-inactivated fetal calf serum, 100 units/ml of penicillin and 100 ug/ml streptomycin and plated on six-well plates with a density of no more then 6,000 cells/well in 3 ml culture medium. BMRPA1 normal rat pancreatic acinar cells were grown as described previously.
(§3) All cells (approximately 2×10^4) were incubated in their respective media (see above) for 24 h after which the media were replaced with the same media containing one of the peptides at a concentration of 100 μg/ml. Over the subsequent time course of each experiment, the medium was changed every 48 h, but always contained peptide at the same concentration. Cells were observed daily for 1-3 weeks for changes in morphology and growth characteristics. After selected time periods, cells were stained with trypan blue or assayed using the MTT assay as described previously to assess cell counts. These experiments were performed at least three times for each cell line.

Data set [5] has as its system oncogenic ras-p21-JNK interaction. As to the kind of experiment: Oncogenic ras-p21-JNK interaction. As to conditions: dose-response curve coincides with that for inhibition of oocyte maturation. The data set is classed as binding.
The subject of data set [6] is caspase (CPP32) in MIA-PaCa-2 cells. Nature of the data set: Clontech caspase (CPP32) activity assay for apoptosis. It counts as cell-based, human. As to conditions: relative to control background; TNF-alpha 20 ng/ml for 45 min as positive control (FIG. 4A). Here is the method: To detect if peptide-induced cell death occurred by apoptosis or necrosis, the Clontech caspase (CPP32) activity assay for elevated caspase was performed as described previously. In addition, to detect if significant cell necrosis occurred, the CytoTox96 assay for LDH released into the cell culture medium was used as also described previously. As a positive control for LDH release, the CytoTox96 assay was performed on the media of MIA-PaCa-2 cells that were incubated with 100 ug/ml PNC-28 peptide for 24 h.

In data set [7] the test system is HT-1080 fibrosarcoma cells. Nature of the data set: Growth (cell counts) of HT-1080 cells incubated with peptide. As to conditions: peptide 100 μg/ml, medium changed every 48 h; three-week observation period (FIG. 1). The data set is classed as cell-based, human. The method, then: as §2, §3

Consider “TIEDSYRQVVID (PNC-7- ras-p21 residue 35-47)”, for which the “blocking of the interaction of oncogenic ras-p21 with raf” value in data set [1] was “blocks the interaction of oncogenic ras-p21 with raf”. Besides, the “inhibition of insulin-induced oocyte maturation” value in data set [2] is “considerably less inhibitory activity”. For the same substance, the “inhibition of oncogenic ras-p21-induced oocyte maturation” value in data set [3] is “block”.
Regarding “MPFSTGKRIMLGEKKWKMRRNQFVKVQRG [PNC-29, reference compound]”, in data set [4], the “cell growth or viability of untransformed BMRPA1 cells” value (from here on “cell growth or viability”) is “no effect either on cell growth or viability”.
In the case of “YREQIKRVKDSDDVPKKWKMRRNQFVKVQRG [PNC-2-MRP]”, the “cell growth or viability” value in data set [4] is listed as “no effect either on cell growth or viability”.
As for “YREQIKRVKDSDDVP (PNC-2 -ras-p21 residue 96-110)”, the “blocking of the oncogenic ras-p21-JNK interaction” value in data set [5] is given as “blocks the oncogenic ras-p21-JNK interaction”. For the same substance, the “inhibition of insulin-induced oocyte maturation” value in data set [2] is given as “considerably less inhibitory activity”. Besides, in data set [3], the “inhibition of oncogenic ras-p21-induced oocyte maturation” value is reported as “block”.
Regarding “TIEDSYRQVVIDKKWKMRRNQFVKVQRG [PNC-7-MRP]”, the “cell growth or viability” value in data set [4] is “no effect either on cell growth or viability”.
Consider TNF-alpha, for which the “caspase expression in MIA-PaCa-2 cells” value in data set [6] was “markedly elevated”.
Regarding “NAVFRLLHEHKGKKAKKWKMRRNQFVKVQRG (CD45-MRP- Control peptide from the CD-45 antigen linked to penetratin) [CD-45-MRP]”, the “tumor cell growth / cell count of HT-1080 cells” value in data set [7] is “no effect on tumor cell growth”.
